Laboratory results published in patent US9896481B2, “Modified mini-hepcidin peptides and methods of using thereof” (priority 2011, dated 2018).
Read-outs that look alike come from different tables or passages of the source. Starred links: 1 amine or outer side, 2 acyl side, 3 side chain; linkers in the order of their positions; H or OH if unused. Positions of bridges follow the written chain, without caps; N, C: chain ends. Non-standard residues stand in square brackets, D forms with d. Residues, ends and D or L forms follow the SMILES beside them. No end group written: not given here. *: point of attachment. Ursodeoxycholyl = C[C@H](CCC(=O)*)[C@H]1CC[C@H]2[C@@H]3[C@@H](O)C[C@@H]4C[C@H](O)CC[C@]4(C)[C@H]3CC[C@]12C; TTDA(Palmitoyl) = CCCCCCCCCCCCCCCC(=O)NCCCOCCOCCOCCCN*; PEG12 = NCCOCCOCCOCCOCCOCCOCCOCCOCCOCCOCCOCCOCCC(=O)O; dDip = N[C@@H](C(=O)O)C(c1ccccc1)c1ccccc1; Dip = N[C@H](C(=O)O)C(c1ccccc1)c1ccccc1; Palmitoyl = CCCCCCCCCCCCCCCC(=O)*; X2 = O=C(C1CCC(CN[*:1])CC1)[*:2]; β3hF = N[C@H](CC(=O)O)Cc1ccccc1; NMeD = CN[C@@H](CC(=O)O)C(=O)O; Cysteamide = C(CS[*:3])N[*:1]; β3hP = O=C(O)C[C@@H]1CCCN1; AEEEA = NCCOCCOCCOCC(=O)O; Dap = NC[C@H](N)C(=O)O; Inp = O=C(O)C1CCNCC1

Columns and labels:
[1] = test system: C57/Bl6J mice; experiment: Serum iron assay in mice on low-iron diet, 4 hours after peptide; assay type: in vivo, mouse; design: key to active in vivo: *active in vivo; conditions: for active in vivo: asterisk at the EC50 value of Table 1
Description: The decrease in serum iron after peptide administration is the principal measure of hepcidin activity. Thus, as provided herein, the hepcidin activity of selected peptides of the present invention were assayed in vivo by measuring serum iron in test subjects. Briefly, C57/Bl6J mice were maintained on NIH 31 rodent diet (333 parts per million (ppm) iron; Harlan Teklad, Indianapolis, Ind.). Two weeks before the experiment, the mice were switched to a diet containing about 2-4 ppm iron (Harlan Teklad, Indianapolis, Ind.) in order to suppress endogenous hepcidin. Peptide stocks were diluted to desired concentrations in sterile phosphate buffered saline (PBS) or other diluents as described next. Mice were subjected to the following treatments: (a) Injected intraperitoneally either with 100 μl PBS (control) or with 50 μg peptide in 100 μl PBS; (b) Injected with 100 μl of peptide (or PBS) mixed with 500 μg empty liposomes COATSOME EL series (NOF, Tokyo, Japan) (prepared as per manufacturer's recommendation); (c) Injected with 100 μl peptides (or PBS) solubilized with SL220 solubilization agent (NOF, Tokyo, Japan); (d) Gavaged with 250 μl of peptide (or PBS) in 1× solvent (Cremophor EL (Sigma)/ethanol/PBS; (12.5:12.5:75)). Mice were sacrificed 4 hours later, blood was collected by cardiac puncture, and serum was separated using MICROTAINER tubes (Becton Dickinson, Franklin Lakes, N.J.). Serum iron was determined by using a colorimetric assay (Diagnostic Chemicals, Oxford, Conn.), which was modified for the microplate format so that 10 μl serum was used per measurement. The results were expressed as the percentage of decrease in serum iron when compared with the average value of serum iron levels in PBS-treated mice.

[2] = target: T1, ferroportin tagged at the C-terminus with green fluorescent protein (Fpn-GFP) (Mus musculus, UniProt Q9JHI9); experiment: Flow cytometry of ferroportin-GFP degradation in ECR293/Fpn-GFP cells; assay type: cell-based; conditions: for EC50: read-out: EC50
T1 construct: expressed in transfected cells; host or cells: ECR293/Fpn-GFP (stably transfected, ponasterone-inducible)
T1 sequence (Q9JHI9 1-570): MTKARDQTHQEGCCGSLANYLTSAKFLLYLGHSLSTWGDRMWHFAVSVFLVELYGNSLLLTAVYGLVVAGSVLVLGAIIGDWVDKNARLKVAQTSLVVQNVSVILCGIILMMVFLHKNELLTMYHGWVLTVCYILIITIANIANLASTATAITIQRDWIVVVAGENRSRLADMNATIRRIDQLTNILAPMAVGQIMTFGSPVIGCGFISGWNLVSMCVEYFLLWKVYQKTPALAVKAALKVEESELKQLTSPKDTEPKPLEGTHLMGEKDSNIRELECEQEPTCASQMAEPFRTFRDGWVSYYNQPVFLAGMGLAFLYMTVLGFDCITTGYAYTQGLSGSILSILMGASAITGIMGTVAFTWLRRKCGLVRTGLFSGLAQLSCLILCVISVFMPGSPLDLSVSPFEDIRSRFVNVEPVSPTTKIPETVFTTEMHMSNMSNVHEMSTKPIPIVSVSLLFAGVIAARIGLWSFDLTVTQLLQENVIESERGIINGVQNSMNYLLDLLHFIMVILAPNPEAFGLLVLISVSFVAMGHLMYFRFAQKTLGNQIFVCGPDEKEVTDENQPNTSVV
Description: In vitro activity may be measured by the dose-dependent loss of fluorescence of cells engineered to display ferroportin fused to green fluorescent protein as in Nemeth et al. (2006) Blood 107:328-33. Aliquots of cells are incubated for 24 hours with graded concentrations of a reference preparation of Hep25 or a mini-hepcidin. As provided herein, the EC50 values are provided as the concentration of a given compound (e.g. peptide) that elicits 50% of the maximal loss of fluorescence generated by the reference Hep25 preparation.
Mutational studies indicate that C326, the cysteine residue at position 326 of human ferroportin, is the critical residue involved in binding hepcidin. Thus, various N-terminal fragments of Hep25 containing a thiol, i.e. Hep 4-7, Hep3-7, Hep3-8, Hep3-9, Hep1-7, Hep1-8, Hep1-9, and Hep1-10 C7A, were chemically synthesized, refolded and their activities relative to Hep25 were assayed using flow-cytometric quantitation of the ferroportin-GFP degradation, iron efflux estimation based on measurements of cellular ferritin, and radioisotopic iron efflux studies.
The activity of peptides of the present invention was measured by flow cytometry as previously described. See Nemeth et al. (2006) Blood 107:328-333, which is herein incorporated by reference. ECR293/Fpn-GFP, a cell line stably transfected with a ponasterone-inducible ferroportin construct tagged at the C-terminus with green fluorescent protein was used. See Nemeth et al. (2004) Science 306:2090-2093, which is herein incorporated by reference. Briefly, the cells were plated on poly-D-lysine coated plates in the presence of 20 μM FAC, with or without 10 μM ponasterone. After 24 hours, ponasterone was washed off, and cells were treated with peptides for 24 hours. Cells were then trypsinized and resuspended at 1×10^6 cells/ml, and the intensity of green fluorescence was analyzed by flow cytometry. Flow cytometry was performed on FAC SCAN (fluorescence activated cell scanner) Analytic Flow Cytometer (Becton Dickinson, San Jose, Calif.) with […] version 3.3 software (Becton Dickinson). Cells not induced with ponasterone to express Fpn-GFP were used to establish a gate to exclude background fluorescence. Cells induced with ponasterone, but not treated with any peptides, were used as the positive control. Each peptide was tested over the range of concentrations (0, 0.01, 0.03, 0.1, 0.3, 1, 3 and 10 μM). Each peptide treatment was repeated independently 3 to 6 times. For each concentration of peptide, the results were expressed as a fraction of the maximal activity (FHep25) of Hep25 (in the dose range 0.01-10 μM), according to the formula 1−((Fx−FHep25)/(Funtreated−FHep25)), where F was the mean of the gated green fluorescence and x was the peptide.

[3] = test system: mouse; experiment: Activity at 20 nmoles/mouse: serum iron 4 hours after injection versus solvent (Tables 3 and 4); assay type: in vivo; design: key: Y: “Active” means that at 4 hours after injection serum iron in peptide-injected mice decreased statistically significantly (p < 0.05) compared to solvent-injected mice; Y*: Exhibits detectable and reproducible activity at about 50% lower than the most active compounds in Table 3 and 4; conditions: Table 3, intraperitoneal

Compound: CCCCCCCCCCCCCCCC(=O)NCCOCCOCCOCCOCCOCCOCCOCCOCCOCCOCCOCCOCCC(=O)N[C@H](Cc1ccccc1)C(=O)N[C@@H](C(=O)N[C@H](CS)C(=O)N[C@@H](C(=O)N1CCC[C@@H]1C(=O)N[C@H](Cc1ccccc1)C(=O)N[C@H](Cc1c[nH]cn1)C(=O)N[C@@H](C(=O)N[C@H](CC(=O)O)C(N)=O)[C@H](C)O)[C@H](C)CC)[C@H](C)CC [PR27]
- serum iron ([1]; 20 nmoles i.p. in PBS): comparable to that caused by i.p. administration of 20 nmoles Hep25
- serum iron ([1]; 200 nmoles i.p. in PBS): even greater decrease
- serum iron ([1]; 200 nmoles oral by gavage in Cremophor EL solution): caused a decrease in serum iron
- active in vivo [1]: *
- EC50 ([2]; Table 1, 24 h peptide treatment, 50% of maximal loss of fluorescence by Hep25): 20 nM

Compound: CC[C@H](C)[C@H](NC(=O)[C@H](CS)NC(=O)[C@@H](NC(=O)[C@@H]1CCCN1C(=O)[C@H](Cc1ccccc1)NC(=O)[C@H](Cc1c[nH]cn1)NC(=O)[C@@H](NC(=O)[C@@H](N)CC(=O)O)[C@@H](C)O)[C@@H](C)CC)C(=O)N[C@@H](Cc1ccccc1)C(N)=O [Hep9]
- serum iron ([1]; 50 μg per mouse i.p. in PBS, after 4 hours): did not result in a serum iron decrease

Compound: CCCCCCCCCCCCCCCC(=O)NCCCOCCOCCOCCCNC(=O)COCCOCCOCCNC(=O)[C@H](Cc1ccccc1)NC(=O)C1(NC(=O)[C@H](CS)NC(=O)C2(NC(=O)[C@@H]3CCCN3C(=O)[C@@H](NC(=O)[C@H](Cc3c[nH]cn3)NC(=O)[C@@H](NC(=O)CNCC(=O)O)[C@@H](C)O)C(c3ccccc3)c3ccccc3)CCCCC2)CCCCC1 [PR60]
- Active @ 20 nmoles/mouse IP [3]: Y*

Compound: CC[C@@H](C)[C@@H](NC(=O)[C@@H](Cc1ccccc1)NC(=O)CCOCCOCCOCCOCCOCCOCCOCCOCCOCCOCCOCCOCCNC(=O)[C@@H](CC(=O)O)NC(=O)CC[C@@H](C)[C@H]1CC[C@H]2[C@@H]3[C@@H](O)C[C@@H]4C[C@H](O)CC[C@]4(C)[C@H]3CC[C@]12C)C(=O)N[C@H](CS)C(=O)N[C@@H](C(=O)N1CCC[C@@H]1C(=O)N[C@H](Cc1ccccc1)C(=O)N[C@H](Cc1c[nH]cn1)C(=O)N[C@@H](C(=O)N[C@H](CC(=O)O)C(N)=O)[C@H](C)O)[C@H](C)CC [PR24] (Ursodeoxycholyl-[dD][PEG12][dF][dI][dC][dI][dP][dF][dH][dT][dD]-NH2)
- active in vivo [1]: *

Compound: CCCCCCCCCCCCCCCC(=O)NC[C@H](NC(=O)CCCCCCCCCCCCCCC)C(=O)NCCOCCOCCOCCOCCOCCOCCOCCOCCOCCOCCOCCOCCC(=O)N[C@H](Cc1ccccc1)C(=O)N[C@@H](C(=O)N[C@H](CS)C(=O)N[C@@H](C(=O)N1CCC[C@@H]1C(=O)N[C@H](Cc1ccccc1)C(=O)N[C@H](Cc1c[nH]cn1)C(=O)N[C@@H](C(=O)N[C@H](CC(=O)O)C(N)=O)[C@H](C)O)[C@H](C)CC)[C@H](C)CC [PR28] (Palmitoyl-[Dap](Palmitoyl)[PEG12][dF][dI][dC][dI][dP][dF][dH][dT][dD]-NH2)
- serum iron ([1]; 20 nmoles i.p. in liposomal solution): lesser ability to decrease serum iron than PR27

Compound: T2A: Hep25 with alanine substitution T2A (DAHFPICIFCCGCCHRSKCGMCCKT; disulfide (positions not given here); not fully specified (C-terminus); also: four disulfide bonds, pairing not given here; UniProt P81172 60-84, looked up, variant T2A)
- hepcidin activity relative to Hep25 (in words) ([2]; FIGS. 1-4): did not substantially impact hepcidin activity

Compound: N=C(N)NCCC[C@@H]1NC(=O)C2CCC(CC2)CNC(=O)[C@@H](C(c2ccccc2)c2ccccc2)NC(=O)[C@H]2CCCN2C(=O)[C@@H](N)CSSCCNC(=O)[C@H](C(c2ccccc2)c2ccccc2)NC(=O)C2CCN(CC2)C(=O)C2CCC(CC2)CNC1=O [PR-3] (H-C[dP][dDip][X2]R[X2][Inp][Dip]-Cysteamide; disulfide 1-C)
- EC50 [2]: 1000 nM

Compound: CCCCCCCCCCCCCCCC(=O)NCCCOCCOCCOCCCNC(=O)COCCOCCOCCNC(=O)C[C@H](Cc1ccccc1)NC(=O)[C@H](CCCNC(=N)N)NC(=O)[C@H](CS)NC(=O)[C@H](CCCNC(=N)N)NC(=O)C[C@@H]1CCCN1C(=O)[C@@H](NC(=O)[C@H](Cc1c[nH]cn1)NC(=O)[C@@H](NC(=O)[C@H](CC(=O)O)NC)[C@@H](C)O)C(c1ccccc1)c1ccccc1 [PR57] (H-[NMeD]TH[Dip][β3hP]RCR[β3hF][AEEEA]-{TTDA(Palmitoyl)}; N-terminus and C-terminus assumed)
- Active @ 20 nmoles/mouse IP [3]: Y
